Values of other authors in US7833962B2, “Method of reducing hypertension by administering flavanol gylcosides” (Conopco, Inc., priority 2003, dated 2010).
Entries after “also recorded” stand apart in the source; their conditions may differ.

Key:
[1] = compared with quercetin glucosides such as isoquercitrin
[2] = tested on: Spontaneously Hypertensive Rats (SHR); conditions: chronic treatment, Duarte et al. 2001

Compound | bioavailability [1] | blood pressure [2] | glutathione peroxidase activity [2] | plasma and hepatic malondialdehyde levels [2]
C[C@@H]1O[C@@H](OC[C@H]2O[C@@H](Oc3c(-c4ccc(O)c(O)c4)oc4cc(O)cc(O)c4c3=O)[C@H](O)[C@@H](O)[C@@H]2O)[C@H](O)[C@H](O)[C@H]1O [rutin, quercetin-3-rutinoside] | poor bioavailability; also recorded: much lower than the glucoside isoquercitrin | – | – | –
O=c1c(O)c(-c2ccc(O)c(O)c2)oc2cc(O)cc(O)c12 [quercetin aglycone, quercetin] | – | reduced blood pressure | increased glutathione peroxidase activity | reduced both plasma and hepatic malondialdehyde levels
